Experimental data from US20110152166A1, “METHOD OF MODULATION OF PROTEIN PHOSPHORYLATION-DEPENDENT CONFORMATIONAL TRANSITIONS WITH LOW MOLECULAR WEIGHT COMPOUNDS” (priority 2006, published 2011).
Numbering of substitutions follows the chain as printed. Read-outs that look alike come from different tables or passages of the source. Square brackets hold non-standard residues; d marks the D form. Ends that are not written are not given here. pS = N[C@@H](COP(=O)(O)O)C(=O)O

Legend:
Experiment in all cases: PDK1 activity assay with T308tide
Format in all cases: biochemical
GST-PDK1 [Ile119Ala] = biological target: T1, GST-PDK1 [Ile119Ala] (Homo sapiens, UniProt O15530, I119A); conditions: for AC50 / Max. activity: GST-PDK1 [Ile119Ala]
T1 construct: different protein constructs, comprising the full length protein or the catalytic domain alone; made in house; host or cells: HEK293 cells (pEBG-2T-PDK1 mutant)
T1 sequence (O15530 1-556 I119A): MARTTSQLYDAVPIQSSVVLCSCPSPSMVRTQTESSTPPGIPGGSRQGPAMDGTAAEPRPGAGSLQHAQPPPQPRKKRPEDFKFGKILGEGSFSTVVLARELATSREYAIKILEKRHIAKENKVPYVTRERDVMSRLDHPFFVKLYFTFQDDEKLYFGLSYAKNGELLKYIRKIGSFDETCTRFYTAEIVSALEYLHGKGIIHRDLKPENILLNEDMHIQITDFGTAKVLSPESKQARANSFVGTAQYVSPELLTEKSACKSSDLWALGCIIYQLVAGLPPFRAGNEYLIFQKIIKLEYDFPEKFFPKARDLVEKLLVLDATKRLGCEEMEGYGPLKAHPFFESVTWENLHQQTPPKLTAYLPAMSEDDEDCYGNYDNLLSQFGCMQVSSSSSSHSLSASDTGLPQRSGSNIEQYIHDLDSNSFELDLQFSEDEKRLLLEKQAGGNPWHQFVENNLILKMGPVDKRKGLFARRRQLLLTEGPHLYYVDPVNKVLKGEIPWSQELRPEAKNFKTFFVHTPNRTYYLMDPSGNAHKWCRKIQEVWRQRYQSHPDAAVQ
Experimental: (§1) Protein kinase activity tests were performed essentially as previously described (Balendran et al., 2000; Biondi et al., 2000; Biondi et al., 2001). Substrates used were either MBP (for PKCζ or polypeptides (Crosstide for PKB, S6K, SGK and PRK2; T308tide for PDK1, and Kemptide for PKA). PKA (Sigma) was measured in the presence of 100 μM cAMP. Alternatively, assays were performed in a 96 well format, aliquots spotted on p81 phosphocellulose papers (Whatmann), washed in 0.01% phosphoric acid, dried, and then exposed and analysed using Phospholmager technology (Storm, Molecular Dynamics). Activity measurements were performed in duplicates with less than 10% difference between duplicate pairs. Experiments were repeated at least twice, although most of the experiments were repeated multiple times, with similar results.
(§2) PDK1 activity assay was performed in a 20 μl mix containing 50 mM Tris-HCl pH 7.5, 0.05 mg/ml BSA, 0.1% β-mercaptoethanol, 10 mM MgCl2, 100 μM [γ^32P]ATP (5-50 cpm/pmol), 0.003% Brij, 150 ng PDK1, and T308tide (from 0.05 to 1 mM). PDK1 specific activity was approximately 5 U/mg (when measured at 1 mM T308tide). The effect of small compounds on PDK1 was repeated with proteins from different purification batches and with different protein constructs, comprising the full length protein or the catalytic domain alone, with similar results. […] This variability may be due to the PIFtide/compound-stimulated autophosphorylation of the activation loop in certain preparations having less than a 1:1 molar phosphorylation stoichiometry at this site.
(§3) PDK1 activity was measured at room temperature using a polypeptide substrate derived from the activation loop phosphorylation site of PKB, T308tide (0.1 mM). […] GST-PDK1 wt was purified in numerous occasions and the maximal activation level of different batches varied between 3 and 8 fold activation with PIFtide or compound 1. Variations in the basal activity and fold activation were also observed in mutants. Therefore, comparisons in the maximal level of activation between mutants should be performed with care. The data shown are from an experiment where PIFtide concentrations were tested between 50 nM and 20 µM and compound 1 concentrations were between 5 μM and 200 μM, in triplicate. AC50 and max. activity were estimated by fitting the data to a hyperbola using Kaleidagraph software. One Unit of PDK1 activity was defined as the amount required to catalyse the phosphorylation of 1 nmol of the T308tide in 1 min.

GST-PDK1 [Thr148Val] = biological target: T2, GST-PDK1 [Thr148Val] (Homo sapiens, UniProt O15530, T148V); conditions: for activation of PDK1 mutant (in words): PDK1[Thr148Val], 20 μM
T2 construct: different protein constructs, comprising the full length protein or the catalytic domain alone; made in house; host or cells: HEK293 cells (pEBG-2T-PDK1 mutant)
T2 sequence (O15530 1-556 T148V): T1 sequence (O15530 1-556 I119A) with A119I, T148V
Experimental: as §1, §2, §3

GST-PDK1 wt = biological target: T3, GST-PDK1 wt (Homo sapiens, UniProt O15530); conditions: for PDK1 (%) activity: 1% DMSO = 100%; for activation of PDK1 (in words): PDK1 wild type
T3 construct: different protein constructs, comprising the full length protein or the catalytic domain alone; made in house; host or cells: HEK293 cells (pEBG-2T-PDK1)
T3 sequence (O15530 1-556): T1 sequence (O15530 1-556 I119A) with A119I
Experimental: as §1, §2, §3

[1] = GST-PDK1 wt, T308tide 0.1 mM, read-out: AC50

**Q.** What does the source list for `O=C(O)CSC(CC(=O)c1ccc(Cl)cc1)c1ccccc1` (stereo not shown) [Compound 1]?
**A.** AC50 (GST-PDK1 [Ile119Ala]): 90 ± 20 µM; Max. activity (GST-PDK1 [Ile119Ala]): 2.1 ± 0.23 U/mg; Max. activity (GST-PDK1 [Thr148Val]; GST-PDK1 [Thr148Val]): 2.44 ± 0.26 U/mg; AC50 (GST-PDK1 [Thr148Val]; GST-PDK1 [Thr148Val], read-out: AC50): 102 ± 19 µM; activation of PDK1 mutant (in words) (GST-PDK1 [Thr148Val]): still activated; PDK1 (%) activity (GST-PDK1 wt; 20 μM compound): 234%; PDK1 (%) activity (GST-PDK1 wt; 200 μM compound): 370%; AC50 (GST-PDK1 wt; FIG. 2B, read-out: AC50 of PDK1 activation): 25 µM; Max. activity (GST-PDK1 wt; GST-PDK1 wt, T308tide 0.1 mM): 1.1 ± 0.07 U/mg; AC50 (GST-PDK1 wt; [1]): 34 ± 9 µM; activation of PDK1 (in words) (GST-PDK1 wt): activated PDK1

**Q.** For `COC(=O)CSC(CC(=O)c1ccc(Cl)cc1)c1ccccc1` (stereo not shown) [Compound 2], which “PDK1 (%) activity” value (GST-PDK1 wt; 20 μM compound) is on record?
**A.** 109%

**Q.** What about the “PDK1 (%) activity” value (GST-PDK1 wt; 200 μM compound) of the same compound?
**A.** 124%

**Q.** And the “activation of PDK1 (in words)” value (GST-PDK1 wt)?
**A.** inactive

**Q.** Which results are given for “P-HM-RSK: phosphorylated HM polypeptide of RSK: KGAGGGGFRGFS(P)FVA (KGAGGGGFRGF[pS]FVA)”?
**A.** activation of PDK1 mutant (in words) (GST-PDK1 [Ile119Ala]; Ile119 mutant, P-HM-RSK 20 μM): completely abolished; activation of PDK1 mutant (in words) (GST-PDK1 [Thr148Val]): completely abolished; activation of PDK1 (in words) (GST-PDK1 wt): activated

**Q.** Which AC50 (GST-PDK1 [Ile119Ala]) does the source give for “REPRILSEEEQEMFRDFDYIADWC [PIFtide, reference compound]” here?
**A.** 0.66 ± 0.14 µM

**Q.** And the Max. activity (GST-PDK1 [Ile119Ala])?
**A.** 2.58 ± 0.17 U/mg

**Q.** What about the AC50 (GST-PDK1 [Thr148Val]; GST-PDK1 [Thr148Val]) of the same compound?
**A.** INH

**Q.** What about the Max. activity (GST-PDK1 wt; GST-PDK1 wt, T308tide 0.1 mM) of the same compound?
**A.** 0.9 ± 0.05 U/mg

**Q.** And the AC50 (GST-PDK1 wt; [1])?
**A.** 0.11 ± 0.03 µM
